According to article PMC12112586, “Inhibitory Effect of Fluralaner on GABA Receptor Subunit RDL of Bactrocera dorsalis” (Insects, 2025):

Columns and labels:
[1] = target: T1, BdRDL (GABA receptor subunit RDL) (Bactrocera dorsalis, UniProt A0ABM3JZQ9); assay: two-electrode voltage clamp in Xenopus oocytes, inhibition of GABA (EC50)-induced currents; assay type: cell-based
T1 construct: gene LOC105225059; full-length ORF, 596 amino acids (GenBank XM_049458762), homomeric receptor expressed in Xenopus oocytes
T1 sequence (A0ABM3JZQ9 1-596): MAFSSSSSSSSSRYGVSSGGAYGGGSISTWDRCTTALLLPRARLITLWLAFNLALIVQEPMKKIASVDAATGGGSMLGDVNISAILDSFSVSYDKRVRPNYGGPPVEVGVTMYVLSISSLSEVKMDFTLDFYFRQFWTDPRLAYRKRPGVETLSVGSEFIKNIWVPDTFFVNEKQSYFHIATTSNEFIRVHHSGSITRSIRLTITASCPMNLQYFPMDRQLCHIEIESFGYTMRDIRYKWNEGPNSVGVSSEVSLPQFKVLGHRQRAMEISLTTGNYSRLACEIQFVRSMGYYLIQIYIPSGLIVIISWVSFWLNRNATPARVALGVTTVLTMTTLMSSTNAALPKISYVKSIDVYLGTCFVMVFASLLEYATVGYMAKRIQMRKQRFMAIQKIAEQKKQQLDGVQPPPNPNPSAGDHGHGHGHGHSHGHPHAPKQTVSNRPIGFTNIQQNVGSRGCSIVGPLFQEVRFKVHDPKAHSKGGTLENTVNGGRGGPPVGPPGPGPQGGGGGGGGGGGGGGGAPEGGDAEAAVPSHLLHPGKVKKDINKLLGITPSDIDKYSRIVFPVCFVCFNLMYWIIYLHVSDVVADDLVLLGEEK

[2] = target: T1, BdRDL (GABA receptor subunit RDL); assay: two-electrode voltage clamp in Xenopus oocytes, agonist-induced currents; assay type: cell-based

Row | EC50 [2] | SMILES | IC50 [1]
1 | – | Cc1cc(C2=NOC(c3cc(Cl)cc(Cl)c3)(C(F)(F)F)C2)ccc1C(=O)NCC(=O)NCC(F)(F)F (racemic) [fluralaner] | 0.15 µM
2 | 240 µM | NCCCC(=O)O [GABA] | –
